Reference: ChEMBL document CHEMBL5257097, “An Isomer of Galidesivir That Potently Inhibits Influenza Viruses and Members of the Bunyavirales Order” (ACS Med Chem Lett, 2023)

Key:
dengue virus type 2 [1] = assay: Antiviral activity against DENV-2 infected in human Huh-7 cells assessed as reduction in virus-induced cytopathic effect measured after 15 to 30 mins by visual analysis; type: functional, organism-based
dengue virus type 2 [2] = assay: Antiviral activity against DENV-2 infected in human Huh-7 cells assessed as reduction in virus-induced cytopathic effect measured after 15 to 30 mins by neutral red based analysis; type: functional, organism-based
Huh-7 [3] = assay: Cytotoxicity against human Huh-7 cells infected with DENV-2 assessed as reduction in cell viability by visual analysis; type: functional
Huh-7 [4] = assay: Cytotoxicity against human Huh-7 cells infected with DENV-2 assessed as reduction in cell viability by neutral red dye based assay; type: functional
[5] = Selectivity index, ratio of CC50 for cytotoxicity against human Huh-7 cells infected with DENV-2 assessed as reduction in cell viability by visual analysis to EC50 for antiviral activity against DENV-2 infected in human Huh-7 cells assessed as reduction in virus-induced cytopathic effect by visual analysis; type: toxicity, cell-based; conditions: read-out: Ratio CC50/EC50
[6] = Selectivity index, ratio of CC50 for cytotoxicity against human Huh-7 cells infected with DENV-2 assessed as reduction in cell viability by neutral red analysis to EC50 for antiviral activity against DENV-2 infected in human Huh-7 cells assessed as reduction in virus-induced cytopathic effect by neutral red analysis; type: toxicity, cell-based; conditions: read-out: Ratio CC50/EC50
Yellow fever virus [7] = assay: Antiviral activity against Yellow fever virus infected in human Huh-7 cells assessed as reduction in virus-induced cytopathic effect measured after 15 to 30 mins by visual analysis; type: functional, organism-based; conditions: Yellow fever virus, Huh-7; read-out: EC50
Yellow fever virus [8] = assay: Antiviral activity against Yellow fever virus infected in human Huh-7 cells assessed as reduction in virus-induced cytopathic effect measured after 15 to 30 mins by neutral red based analysis; type: functional, organism-based
Huh-7 [9] = assay: Cytotoxicity against human Huh-7 cells infected with Yellow fever virus assessed as reduction in cell viability by neutral red dye based assay; type: functional
Huh-7 [10] = assay: Cytotoxicity against human Huh-7 cells infected with Yellow fever virus assessed as reduction in cell viability by visual assay; type: functional
[11] = Selectivity index, ratio of CC50 for cytotoxicity against human Huh-7 cells infected with Yellow fever virus assessed as reduction in cell viability by visual analysis to EC50 for antiviral activity against Yellow fever virus infected in human Huh-7 cells assessed as reduction in virus-induced cytopathic effect by visual analysis; type: toxicity, cell-based; conditions: read-out: Ratio CC50/EC50
[12] = Selectivity index, ratio of CC50 for cytotoxicity against human Huh-7 cells infected with Yellow fever virus assessed as reduction in cell viability by neutral red dye based assay to EC50 for antiviral activity against Yellow fever virus infected in human Huh-7 cells assessed as reduction in virus-induced cytopathic effect by neutral red based analysis; type: toxicity; conditions: read-out: Ratio CC50/EC50
Zika virus [13] = assay: Antiviral activity against Zika virus infected in African green monkey Vero 76 cells assessed as reduction in virus-induced cytopathic effect measured after 15 to 30 mins by visual analysis; type: functional, organism-based
Zika virus [14] = assay: Antiviral activity against Zika virus infected in African green monkey Vero 76 cells assessed as reduction in virus-induced cytopathic effect measured after 15 to 30 mins by neutral red based spectrophotometric analysis; type: functional, organism-based
[15] = Cytotoxicity against African green monkey Vero 76 cells infected with Zika virus assessed as reduction in cell viability by neutral red dye based assay; type: toxicity; conditions: chlorocebus sabaeus
[16] = Selectivity index, ratio of CC50 for cytotoxicity against African green monkey Vero 76 infected with Zika virus assessed as reduction in cell viability by visual analysis to EC50 for antiviral activity against Zika virus infected in African green monkey Vero 76 cells assessed as reduction in virus-induced cytopathic effect by visual analysis; type: toxicity, cell-based; conditions: Vero 76 cells infected with Zika virus, read-out: Ratio CC50/EC50
[17] = Selectivity index, ratio of CC50 for cytotoxicity against African green monkey Vero 76 cells infected with Zika virus assessed as reduction in cell viability by neutral red dye based analysis to EC50 for antiviral activity against Zika virus infected in African green monkey Vero 76 cells assessed as reduction in virus-induced cytopathic effect by neutral red based spectrophotometric analysis; type: toxicity; conditions: read-out: Ratio CC50/EC50
Influenza A virus [18] = assay: Antiviral activity against Influenza A virus H1N1 infected in dog MDCK cells assessed as reduction in virus-induced cytopathic effect measured after 15 to 30 mins by visual analysis; type: functional, organism-based
Influenza A virus [19] = assay: Antiviral activity against Influenza A virus H1N1 infected in dog MDCK cells assessed as reduction in virus-induced cytopathic effect measured after 15 to 30 mins by neutral red based analysis; type: functional, organism-based
[20] = Cytotoxicity against dog MDCK cells infected with Influenza A virus H1N1 assessed as reduction in cell viability by visual analysis; type: toxicity, cell-based, Canis lupus familiaris
[21] = Cytotoxicity against dog MDCK cells infected with Influenza A virus H1N1 assessed as reduction in cell viability by neutral red dye based assay; type: toxicity, Canis lupus familiaris
[22] = Selectivity index, ratio of CC50 for cytotoxicity against dog MDCK cells infected with Influenza A virus H1N1 assessed as reduction in cell viability by visual analysis to EC50 for antiviral activity against Influenza A virus H1N1 infected in dog MDCK cells assessed as reduction in virus-induced cytopathic effect by visual analysis; type: toxicity, cell-based; conditions: read-out: Ratio CC50/EC50
[23] = Selectivity index, ratio of CC50 for cytotoxicity against dog MDCK cells infected with Influenza A virus H1N1 assessed as reduction in cell viability by neutral red dye based analysis to EC50 for antiviral activity against Influenza A virus H1N1 infected in dog MDCK cells assessed as reduction in virus-induced cytopathic effect by neutral red dye based analysis; type: toxicity; conditions: read-out: Ratio CC50/EC50
[24] = test system: Middle East respiratory syndrome-related coronavirus; assay: Antiviral activity against MERS-CoV infected in African green monkey Vero 76 cells assessed as reduction in virus-induced cytopathic effect measured after 15 to 30 mins by visual analysis; type: functional, organism-based
[25] = test system: Middle East respiratory syndrome-related coronavirus; assay: Antiviral activity against MERS-CoV infected in African green monkey Vero 76 cells assessed as reduction in virus-induced cytopathic effect measured after 15 to 30 mins by neutral red dye based analysis; type: functional, organism-based
[26] = Cytotoxicity against African green monkey Vero 76 cells infected with MERS-CoV assessed as reduction in cell viability by visual analysis; type: toxicity, cell-based; conditions: chlorocebus sabaeus
[27] = Cytotoxicity against African green monkey Vero 76 cells infected with MERS-CoV assessed as reduction in cell viability by neutral red dye based analysis; type: toxicity; conditions: chlorocebus sabaeus
Rift Valley fever virus [28] = assay: Antiviral activity against Rift valley fever virus infected in African green monkey Vero 76 cells assessed as reduction in virus-induced cytopathic effect measured after 15 to 30 mins by visual analysis; type: functional, organism-based
[29] = Cytotoxicity against African green monkey Vero 76 cells infected with Rift valley fever virus assessed as reduction in cell viability by visual analysis; type: toxicity, cell-based; conditions: chlorocebus sabaeus
Rift Valley fever virus [30] = assay: Antiviral activity against Rift valley fever virus infected in African green monkey Vero 76 cells assessed as reduction in virus-induced cytopathic effect measured after 15 to 30 mins by neutral red dye based analysis; type: functional, organism-based
[31] = Cytotoxicity against African green monkey Vero 76 cells infected with Rift valley fever virus assessed as reduction in cell viability by neutral red dye based analysis; type: toxicity; conditions: chlorocebus sabaeus
[32] = Selectivity index, ratio of CC50 for cytotoxicity against African green monkey Vero 76 cells infected with Rift valley fever virus assessed as reduction in cell viability by visual analysis to EC50 for antiviral activity against Rift valley fever virus infected in African green monkey Vero 76 cells assessed as reduction in virus-induced cytopathic effect by visual analysis; type: toxicity, cell-based; conditions: read-out: Ratio CC50/EC50
[33] = Selectivity index, ratio of CC50 for cytotoxicity against African green monkey Vero 76 cells infected with Rift valley fever virus assessed as reduction in cell viability by neutral red dye based analysis to EC50 for antiviral activity against Rift valley fever virus infected in African green monkey Vero 76 cells assessed as reduction in virus-induced cytopathic effect by neutral red dye based analysis; type: toxicity; conditions: read-out: Ratio CC50/EC50

Compound | EC50 (dengue virus type 2 [1]) [µM] | EC50 (dengue virus type 2 [2]) [µM] | CC50 (Huh-7 [3]) [µM] | CC50 (Huh-7 [4]) [µM] | selectivity ratio [5] | selectivity ratio [6] | EC50 (Yellow fever virus [7]) [µM] | EC50 (Yellow fever virus [8]) [µM] | CC50 (Huh-7 [9]) [µM] | CC50 (Huh-7 [10]) [µM] | selectivity ratio [11] | selectivity ratio [12] | EC50 (Zika virus [13]) [µM] | EC50 (Zika virus [14]) [µM] | CC50 [15] [µM] | selectivity ratio [16] | selectivity ratio [17] | EC50 (Influenza A virus [18]) [µM] | EC50 (Influenza A virus [19]) [µM] | CC50 [20] [µM] | further results
Nc1ncnn2c([C@@H]3N[C@H](CO)[C@@H](O)[C@H]3O)ccc12 | 0.32 | 0.38 | > 100 | 2.9 | 10 | 2.9 | 0.37 | 0.5 | 3.2 | 3.2 | 8.6 | 8.6 | 0.32 | 0.38 | 4.4 | 19 | 12 | 0.42 | 0.28 | 24 | CC50 [21]: 3 µM; selectivity ratio [22]: 57; selectivity ratio [23]: 23; EC50 [24]: 0.32 µM; EC50 [25]: 32 µM; CC50 [26]: 10 µM; CC50 [27]: 4.4 µM; EC50 (Rift Valley fever virus [28]): < 0.1 µM; CC50 [29]: 10 µM; EC50 (Rift Valley fever virus [30]): < 0.1 µM; CC50 [31]: 8.9 µM; selectivity ratio [32]: > 100; selectivity ratio [33]: > 89
Nc1ncnc2c([C@@H]3N[C@H](CO)[C@@H](O)[C@H]3O)c[nH]c12 [GALIDESIVIR] | 13 | 16 | > 100 | > 100 | > 7.7 | > 100 | > 100 | 18 | > 100 | > 100 | > 3.6 | > 5.6 | 12 | 33 | > 100 | > 8.3 | > 3 | 3.6 | 3.3 | > 100 | CC50 [21]: > 100 µM; selectivity ratio [22]: > 28; selectivity ratio [23]: > 30; EC50 [24]: > 100 µM; EC50 [25]: > 100 µM; CC50 [26]: > 100 µM; CC50 [27]: > 100 µM; EC50 (Rift Valley fever virus [28]): 23 µM; CC50 [29]: > 100 µM; EC50 (Rift Valley fever virus [30]): 27 µM; CC50 [31]: > 100 µM; selectivity ratio [32]: > 4.3; selectivity ratio [33]: > 3.7
